According to patent US10870638B2, “Pyridazinone compound or its salt, and herbicide containing it” (ISHIHARA SANGYO KAISHA, LTD., priority 2016, dated 2020):

Experiments:
Type in all cases: in vivo
Conditions in all cases: 14th day after application
[1] = tested on: green foxtail (Setaria viridis L.); test: Test Example 1: foliar treatment, growth inhibition rate on 14th day
Outline: (§1)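 Plants in upland soil were sprayed on the foliage at early leaf stages (wild oat 0.4–1.2, rice 0.2–2.7, green foxtail 0.5–3.2, soybean primary leaf) with wettable powder or emulsifiable concentrate formulations. Spray volume was 1,000 L/ha water containing 0.1 vol% spreader, at prescribed active-ingredient rates. Growth inhibition (0 = untreated, 100 = complete kill) was scored visually on day 14.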

[2] = tested on: wild oat (Avena fatua L.); test: as above
Outline: as §1

[3] = tested on: crabgrass (Digitaria sanquinalis L.); test: as above
Outline: (§2)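 Visual 0–100% inhibition scoring (100 = complete kill) at 14 days after foliar treatment of soil-grown seedlings at species-specific leaf stages, with the compound sprayed as a wettable powder or emulsifiable concentrate dilution.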

corn (Zea mays L.) [4] = test: as above
Outline: as §2

[5] = tested on: soybean (Glycine max Merr.); test: as above
Outline: as §1

[6] = tested on: italian ryegrass (Lolium multiflorum Lam.); test: as above
Outline: as §2

[7] = tested on: wheat (Triticum aestivum L.); test: as above
Outline: as §2

[8] = tested on: redroot pigweed (Amaranthus retroflexus L.); test: as above
Outline: as §2

[9] = tested on: barnyardgrass (Echinochloa crus-qalli L.); test: as above
Outline: as §2

rice (Oryza sativa L.) [10] = test: as above
Outline: as §1

[11] = tested on: green foxtail (Setaria viridis L.); test: Test Example 2: soil application on the day after sowing, growth inhibition rate on 14th day
Outline: (§3)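 Pre-emergence soil spray on upland soil the day after sowing; wettable powder or emulsifiable concentrate diluted in water at 1,000 L/ha, dosed to prescribed active-ingredient amounts. Visual growth inhibition scored 14 days after application, 0 (untreated-equivalent) to 100 (complete kill).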

corn (Zea mays L.) [12] = test: as above
Outline: as §3

[13] = tested on: crabgrass (Digitaris sanquinalis L.); test: as above
Outline: as §3

[14] = tested on: soybean (Glycine max Merr.); test: as above
Outline: as §3

[15] = tested on: velvetleaf (Abutilon theophrasti MEDIC.); test: as above
Outline: as §3

[16] = tested on: wheat (Triticum aestivum L.); test: as above
Outline: as §3

[17] = tested on: redroot pigweed (Amaranthus retroflexus L.); test: as above
Outline: as §3

[18] = tested on: barnyardgrass (Echinochloa crus-qalli L.); test: as above
Outline: as §3

rice (Oryza sativa L.) [19] = test: as above
Outline: as §3

[20] = tested on: prickly sida (Sida spinosa L.); test: as above
Outline: as §3

[21] = active ingredient amount 31 g/ha
[22] = active ingredient amount 31 g/ha, visual, 0 = non-treated, 100 = complete kill
[23] = active ingredient amount 500 g/ha

Row | Structure (SMILES) | Growth inhibition rate (%) Green foxtail [1, 21] [%] | Growth inhibition rate (%) Wild oat [2, 21] [%] | Growth inhibition rate (%) Crabgrass [3, 21] [%] | Growth inhibition rate (%) Corn (corn (Zea mays L.) [4]; [21]) [%] | Growth inhibition rate (%) Soybean [5, 21] [%] | Growth inhibition rate (%) Italian ryegrass [6, 21] [%] | Growth inhibition rate (%) Wheat [7, 21] [%] | Growth inhibition rate (%) Redroot pigweed [8, 21] [%] | Growth inhibition rate (%) Barnyardgrass [9, 21] [%] | Growth inhibition rate (%) Rice (rice (Oryza sativa L.) [10]; [21]) [%] | Growth inhibition rate (%) Green foxtail [11, 21] [%] | Growth inhibition rate (%) Corn (corn (Zea mays L.) [12]; [21]) [%] | Growth inhibition rate (%) Crabgrass [13, 21] [%] | Growth inhibition rate (%) Soybean [14, 21] [%] | Growth inhibition rate (%) Velvetleaf [15, 21] [%] | Growth inhibition rate (%) Wheat [16, 21] [%] | Growth inhibition rate (%) Redroot pigweed [17, 21] [%] | Growth inhibition rate (%) Barnyardgrass [18, 21] [%] | Growth inhibition rate (%) Rice (rice (Oryza sativa L.) [19]; [21]) [%] | Growth inhibition rate (%) Prickly sida [20, 21] [%] | further results
1 | CC(=O)Oc1cnn(CC2CC2)c(=O)c1-c1cccc(Oc2ncc(C(F)(F)F)cc2Cl)c1C [1-170] | 98 | 40 | 99 | 99 | 0 | 30 | 0 | 10 | 95 | 40 | 98 | 0 | 93 | 0 | 0 | 0 | 0 | 75 | 0 | 0 | –
2 | CC(=O)Oc1cnn(C)c(=O)c1-c1cc(Oc2nc3ccc(Cl)cc3o2)ccc1C [Compound 2-164] | 100 | 90 | 100 | 90 | 40 | 95 | 10 | 0 | 100 | 83 | 90 | 0 | 98 | 0 | 0 | 0 | 0 | 50 | 0 | 0 | –
3 | CSCCC(=O)Oc1c(C)nn(C)c(=O)c1-c1cc(Oc2cnc3cc(Cl)ccc3n2)ccc1C [Compound 3-50] | – | – | – | – | – | – | – | – | – | – | 98 | 0 | 80 | 0 | 0 | 0 | 0 | 99 | 0 | 0 | Growth inhibition rate (%) Green foxtail [1, 22]: 100%; Growth inhibition rate (%) Wild oat [2, 22]: 98%; Growth inhibition rate (%) Crabgrass [3, 22]: 98%; Growth inhibition rate (%) Corn (corn (Zea mays L.) [4]; [22]): 15%; Growth inhibition rate (%) Soybean [5, 22]: 10%; Growth inhibition rate (%) Italian ryegrass [6, 22]: 93%; Growth inhibition rate (%) Wheat [7, 22]: 99%; Growth inhibition rate (%) Redroot pigweed [8, 22]: 0%; Growth inhibition rate (%) Barnyardgrass [9, 22]: 100%; Growth inhibition rate (%) Rice (rice (Oryza sativa L.) [10]; [22]): 60%
4 | CC(=O)Oc1c(C)nn(C)c(=O)c1-c1cc(Oc2ccc3ccccc3n2)ccc1C [Compound 2-142] | – | – | – | – | – | – | – | – | – | – | – | – | – | – | – | – | – | – | – | – | Growth inhibition rate (%) Green foxtail [1, 23]: 90%; Growth inhibition rate (%) Wild oat [2, 23]: 50%; Growth inhibition rate (%) Crabgrass [3, 23]: 83%; Growth inhibition rate (%) Corn (corn (Zea mays L.) [4]; [23]): 20%; Growth inhibition rate (%) Soybean [5, 23]: 25%; Growth inhibition rate (%) Italian ryegrass [6, 23]: 0%; Growth inhibition rate (%) Wheat [7, 23]: 50%; Growth inhibition rate (%) Redroot pigweed [8, 23]: 0%; Growth inhibition rate (%) Barnyardgrass [9, 23]: 100%; Growth inhibition rate (%) Rice (rice (Oryza sativa L.) [10]; [23]): 80%; Growth inhibition rate (%) Green foxtail [11, 23]: 93%; Growth inhibition rate (%) Corn (corn (Zea mays L.) [12]; [23]): 0%; Growth inhibition rate (%) Crabgrass [13, 23]: 98%; Growth inhibition rate (%) Soybean [14, 23]: 0%; Growth inhibition rate (%) Velvetleaf [15, 23]: 0%; Growth inhibition rate (%) Wheat [16, 23]: 0%; Growth inhibition rate (%) Redroot pigweed [17, 23]: 0%; Growth inhibition rate (%) Barnyardgrass [18, 23]: 100%; Growth inhibition rate (%) Rice (rice (Oryza sativa L.) [19]; [23]): 90%; Growth inhibition rate (%) Prickly sida [20, 23]: 0%
5 | CC(=O)Oc1c(C)nn(C)c(=O)c1-c1cc(Oc2nc3ccc(C(F)(F)F)nc3o2)ccc1C [Compound 2-121] | 100 | 98 | 98 | 20 | 0 | 98 | 78 | 20 | 100 | 90 | 100 | 20 | 98 | 0 | 0 | 0 | 0 | 100 | 0 | 0 | –
6 | Cc1nn(C)c(=O)c(-c2cc(Oc3nc4ccc(Cl)cc4o3)ccc2OC(F)(F)F)c1O [Compound 2-175] | 99 | 10 | 98 | 95 | 10 | 50 | 0 | 0 | 98 | 0 | 99 | 30 | 95 | 0 | 0 | 0 | 0 | 100 | 90 | 0 | –
7 | CC(=O)Oc1c(C)nn(C)c(=O)c1-c1cc(Oc2cnc3cc(Cl)ccc3n2)ccc1C [Compound 3-33] | 100 | 100 | 99 | 10 | 30 | 98 | 100 | 0 | 100 | 93 | 100 | 20 | 99 | 0 | 0 | 40 | 0 | 100 | 60 | 0 | –
8 | CC(=O)Oc1c(C)nn(C)c(=O)c1-c1cc(Oc2ncc(C(F)(F)F)cc2Cl)ccc1C [1-40] | 100 | 98 | 99 | 100 | 10 | 100 | 93 | 40 | 100 | 80 | 100 | 30 | 100 | 0 | 0 | 0 | 0 | 100 | 60 | 0 | –
9 | CC(=O)Oc1c(C)nn(C)c(=O)c1-c1cc(Sc2ncc(C(F)(F)F)cc2Cl)ccc1C [1-42] | 100 | 100 | 100 | 100 | 10 | 100 | 100 | 10 | 100 | 88 | 100 | 40 | 100 | 0 | 0 | 0 | 0 | 100 | 80 | 0 | –
